# “Also recorded” adds a separate entry of the source.
# How the values were obtained:
# [1] = tested on: TRPV1; experiment: Calcium imaging of DRG neurons: TRPV1 sensitization (two capsaicin stimuli, Δratio); type: cell-based, mice
# Protocol: (§1) DRG primary cultures were prepared as described previously (Brenneis et al., 2011 b). Briefly, twenty to thirty murine dorsal roots ganglia (DRGs) were dissected from spinal segments and transferred directly into ice-cold Hanks' balanced salt solution with CaCI2 and MgCI2 (lnvitrogen, Carlsbad, Calif., USA). The DRGs were than incubated with Neurobasal Medium (lnvitrogen, Carlsbad, Calif., USA) containing 500 U/ml collagenase (Sigma, Deisenhofen, Germany) and 2.5 U/ml dispase II (Roche, Mannheim, Germany) for 75 mins at 37° C. After removal of the collagenase/dispase-solution cells were washed three times with medium containing 10% FCS, penicillin/streptomycin/gentamycin (lnvitrogen, Carlsbad, Calif., USA) and incubated in 0.05% trypsin for 10 min at 37° C. After two washing steps, the cells were mechanically dissociated with a 1 ml pipette and plated on Poly-L-lysine (Sigma) coated coverslips. After incubation at 37° C. for 2 h, Neurobasal Medium containing glutamine (2 mm), penicillin (100 U/ml), streptomycin (100 μg/ml), B-27 and gentamicin (50 μg/ml) was added to the cells and incubated overnight. The neurons were used for Calcium imaging the next day.
# Calcium-imaging experiments were performed with a Leica calcium-imaging setup, consisting of a Leica DMI 4000 b inverted microscope equipped with a DFC360 FX (CCD) camera, Fura-2 filters, and an N-Plan 10×/0.25 Ph1 objective (all from Leica), was used. Images were taken every 2 s and were processed with the LAS AF-software (Leica). For each experiment, an area with large cell numbers 24 h after preparation (see DRG primary cultures) was chosen and 40-110 cells were monitored simultaneously. Cells were loaded with 5 μM fura-2-AM-ester (Biotium), incubated for 45-60 min at 37° C. and washed with ringer solution (145 mM NaCI, 1.25 mM CaCl2, 1 mM MgCl2, 5 mM KCI, 10 mM D-glucose, and 10 mM HEPES, adjusted to pH 7.3). Baseline measurements were performed with ringer solution at a flow rate of 1-2 ml/min at room temperature. For the activation of TRPV1 we used a solution of 200 nM capsaicin (Sigma), for TRPA1 activation 50 μM allyl isothiocyanate (AITC, Fluka Analytic) and for TRPM8 100 μM L-menthol (Sigma) dissolved in ringer solution. For TRP-channel sensitization, cells were incubated for 2 mins with different concentrations (50 nM-1000 nM) of (±) 9-HODE (Cayman) or (±) 13-HODE (Cayman) before the second stimulus took place. For control stimulations, the corresponding volume of DMSO (Sigma) was mixed in ringer solution and applied with the same flow rate. 10 μM of the PKA inhibitor H89 (Tocris) or 1 μM of the PKC inhibitor GF1 09203X (Tocris) was co-incubated with fura-2 for 45 mins. As positive control for PKA activation 40 iJM 8-bromo-cAMP (Cayman) and for PKC activation 500 nM bradykinin (Cayman) was used. At the end of each measurement, 50 mM KCl was applied to identify neurons.
# [2] = molecular target: T1, TRPA1 (Mus musculus, UniProt Q8BLA8); experiment: Calcium imaging of DRG neurons: TRPA1 sensitization (allyl isothiocyanate); type: cell-based, mice; settings: activated with AITC 50 μM
# T1 construct: endogenous in cells; host or cells: primary murine dorsal root ganglion (DRG) neurons
# Protocol: as §1, with “After incubation at 37° C. for 2 h, Neurobasal Medium containing glutamine (2 mm), penicillin (100 U/ml), streptomycin (100 μg/ml), B-27 and gentamicin (50 μg/ml) was added to the cells and incubated overnight. The neurons were used for Calcium imaging the next day.” left out
# Calcium-imaging experiments were performed with a Leica calcium-imaging setup, consisting of a Leica DMI 4000 b inverted microscope equipped with a DFC360 FX (CCD) camera, Fura-2 filters, and an N-Plan 10×/0.25 Ph1 objective (all from Leica), was used. […] For each experiment, an area with large cell numbers 24 h after preparation (see DRG primary cultures) was chosen and 40-110 cells were monitored simultaneously. […]
# [3] = tested on: DRG neurons; experiment: Neuronal CGRP release from DRG neurons; type: cell-based, mice; settings: 9-HODE 1 μM with capsaicin 400 nM, 10 min
# Protocol: For the determination of neuronal calcitonin gene-related peptide (CGRP) release, dorsal root ganglia (DRGs) neurons were isolated from mice as previously described (Brenneis et al., 2011 a). Briefly, DRG cultures were stimulated for 10 m in with 1 μM (±) 9-HODE (Cayman) alone or in combination with 400 nM capsaicin (Sigma). Cultures supplemented with capsaicin alone served as control. CGRP concentrations in supernatants were analysed utilizing the rat CGRP Enzyme ImmunoAssay Kit (SPI-Bio, Montigny, France) according to the manufacturer's instructions. Absorption was measured with the help of the Spectra Max 250 (Molecular Devices, lsmaning, Germany)
# [4] = tested on: wild type, TRPV1-deficient and G2A-deficient mice; experiment: Mechanical pain thresholds after intraplantar 9-HODE in oxaliplatin-treated mice; type: in vivo; settings: for mechanical pain thresholds after intraplantar 9-HODE: day eight after oxaliplatin treatment; for mechanical paw withdrawal latencies after intraplantar 9-HODE: day 8 of oxaliplatin treatment
# Text: In all behavioral tests the experimenter was unaware of the treatment and the genotype of the mice. For all behavioral experiments we used only 6-12 weeks old C57BU6N mice purchased from commercial breeding companies (Charles River, Sulzfeld, Germany, Janvier, Le Geneset-Saint-lsle, FR). G2A and TRPV1 knockout strains were from Jackson laboratories. All experiments followed the ethics guidelines for investigations in conscious animals and the procedures were approved by the local Ethics Committee.
# For the intra plantar (i.pl.) treatment with 9-HODE (1 0 (JM) (Cayman), a volume of 10 (JI was injected in the mid-plantar area of the hindpaw. For the intraperitoneal (i.p.) treatment, 100 (JI of oxaliplatin (3 mg/kg, Tocris) were injection into the peritoneum. The control group animals were treated with the corresponding volumes of 0.9% saline solution.
# To determine the mechanical thresholds of mice, a Dynamic Plantar Aesthesiometer (Ugo Basile, Comerio, Italy) was used. Mice were put on an elevated grid in test cages at least 2 h before the measurement to allow accommodation. Then, baseline measurement was performed before the treatment with Oxaliplatin or 9-HODE. Therefore, a steel rod pushed against the plantar side of the hind paw with linear ascending force (0-5 g over 10 s, in 0.5 g/s intervals) until a fast withdraw of the paw was observed The time between the first contact of the steel rod and the paw withdraw was measured in seconds (paw withdraw latency) and a cut-off time of 20 s was set.
# [5] = molecular target: T2, G2A receptor (GPR132) (Homo sapiens, UniProt Q9UNW8); settings: heterologous expression system; cited from earlier work
# T2 sequence (Q9UNW8 1-380): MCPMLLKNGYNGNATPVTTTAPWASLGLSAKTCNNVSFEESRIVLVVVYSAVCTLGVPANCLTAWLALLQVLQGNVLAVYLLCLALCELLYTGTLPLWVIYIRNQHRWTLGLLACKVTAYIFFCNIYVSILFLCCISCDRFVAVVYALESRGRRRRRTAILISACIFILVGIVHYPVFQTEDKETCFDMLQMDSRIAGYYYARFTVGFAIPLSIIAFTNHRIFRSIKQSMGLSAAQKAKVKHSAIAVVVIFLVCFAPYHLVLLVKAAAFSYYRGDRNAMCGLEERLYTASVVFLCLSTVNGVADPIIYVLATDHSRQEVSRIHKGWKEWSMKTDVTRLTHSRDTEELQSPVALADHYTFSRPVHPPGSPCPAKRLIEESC
# [6] = molecular target: T2, G2A receptor (GPR132); experiment: Calcium in HEK cells transfected with G2A (FURA-2); type: cell-based; set-up: expressed in transfected cells; settings: HEK cells overexpressing G2A, 9-HODE 1 μM
# T1 sequence (Q8BLA8 whole entry): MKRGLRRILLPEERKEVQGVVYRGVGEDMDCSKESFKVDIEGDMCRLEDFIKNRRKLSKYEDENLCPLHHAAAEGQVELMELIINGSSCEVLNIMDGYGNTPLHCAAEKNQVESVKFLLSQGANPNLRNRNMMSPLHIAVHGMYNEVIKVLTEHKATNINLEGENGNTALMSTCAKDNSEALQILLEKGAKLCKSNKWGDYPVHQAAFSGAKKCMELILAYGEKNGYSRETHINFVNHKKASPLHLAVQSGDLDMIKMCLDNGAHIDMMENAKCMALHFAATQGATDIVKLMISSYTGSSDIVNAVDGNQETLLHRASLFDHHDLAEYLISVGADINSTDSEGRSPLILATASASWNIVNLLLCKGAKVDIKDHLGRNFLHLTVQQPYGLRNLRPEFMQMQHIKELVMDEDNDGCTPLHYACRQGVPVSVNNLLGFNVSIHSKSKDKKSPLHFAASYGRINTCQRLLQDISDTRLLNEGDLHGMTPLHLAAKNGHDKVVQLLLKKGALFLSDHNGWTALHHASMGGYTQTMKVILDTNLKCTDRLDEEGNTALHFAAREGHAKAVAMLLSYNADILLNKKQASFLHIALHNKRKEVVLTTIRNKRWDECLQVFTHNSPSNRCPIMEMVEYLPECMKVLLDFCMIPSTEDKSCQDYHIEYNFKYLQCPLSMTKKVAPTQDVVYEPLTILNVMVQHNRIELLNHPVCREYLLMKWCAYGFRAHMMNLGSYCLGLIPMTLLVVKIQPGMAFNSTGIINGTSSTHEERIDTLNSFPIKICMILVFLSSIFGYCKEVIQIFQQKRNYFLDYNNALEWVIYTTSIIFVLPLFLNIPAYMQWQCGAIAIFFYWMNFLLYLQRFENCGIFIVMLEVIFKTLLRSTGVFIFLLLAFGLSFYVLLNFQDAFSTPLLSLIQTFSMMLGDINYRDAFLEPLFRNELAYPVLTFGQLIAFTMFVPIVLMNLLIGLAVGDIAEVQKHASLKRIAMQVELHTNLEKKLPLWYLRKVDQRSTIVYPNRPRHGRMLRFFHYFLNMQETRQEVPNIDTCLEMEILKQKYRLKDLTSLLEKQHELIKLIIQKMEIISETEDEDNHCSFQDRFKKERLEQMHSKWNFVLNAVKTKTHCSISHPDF
smiles,measurement,setting,value
"CCCCC/C=C\C=C\C(O)CCCCCCCC(=O)O (centres unmarked) [9-HODE, 9-hydroxy-10E,12Z-octadecadienoic acid]",9-HODE-induced TRPV1 sensitization in G2A-deficient DRG neurons,"[1]; DRG cultures of G2A-deficient mice, 9-HODE 200 nM 120 s",not in G2A-deficient mice; also recorded: absent
same,sensitization of TRPV1 (Δratio of first and second capsaicin stimulus),"[1]; DRG neurons, lipid incubated 2 minutes before second capsaicin stimulus, 0 to 1000 nM",dose-dependently sensitizes the TRPV1 channel; also recorded: concentration-dependently induced a sensitization of TRPV1
same,calcium flux of second vs first capsaicin stimulus (Δratio),"[1]; wildtype DRG neurons, lipid 200 nM 120 s, capsaicin 200 nM 30 s",increased calcium flux compared to the first stimulus
same,sensitizing effects for TRPA1,[2],no sensitizing effects
same,capsaicin-dependent CGRP release,[3],increased the capsaicin-dependent CGRP release significantly
same,mechanical pain thresholds after intraplantar 9-HODE,[4]; G2A-deficient mice,not in G2A-deficient mice
same,mechanical paw withdrawal latencies after intraplantar 9-HODE,[4]; TRPV1-deficient mice,not in TRPV1-deficient mice
same,mechanical paw withdrawal latencies after intraplantar 9-HODE,"[4]; wild type mice, ipsilateral paw (TRPV1 study)",strong reduction of mechanical paw withdrawal latencies
same,mechanical pain thresholds after intraplantar 9-HODE,"[4]; wildtype mice, left hind paw (G2A study, 10 μM)",strong reduction of mechanical pain thresholds
same,activation of the G2A receptor,[5],can activate the G2A receptor
same,intracellular calcium concentrations,[6],caused calcium-release; also recorded: increased intracellular calcium concentrations

# Reference: patent publication US20190211397A1, “INHIBITORS OF GPR132 FOR USE IN PREVENTING AND/OR TREATING CHEMOTHERAPY-INDUCED NEUROPATHIC PAIN” (Fraunhofer-Gesellschaft zur Foerderung der angewandten …, priority 2016, published 2019)
